Values of other authors, collected in patent publication US20160032347A1, “NOVEL METHOD AND DEVICE FOR WHOLE-CELL BACTERIAL BIO-CAPACITOR CHIP FOR DETECTING CELLULAR STRESS INDUCED BY TOXIC CHEMICALS” (Sabanci Universitesi, priority 2011, published 2016).

Tested on: E. coli
Details: previous studies; ~6.5%

For [Cl-].[Na+] [NaCl, sodium chloride], the “salt tolerance level reported for E. coli” value is given as “up to 1.1 M”.
